Entries after “also recorded” stand apart in the source; their conditions may differ.
Key:
TNF-α = TNF-α secretion by RAW 264.7 cells; type: cell-based, murine; settings: 2 μg/mL of ciprofloxacin
[1] = tested on: intra-macrophage PA (XDR); assay: 24 h intracellular infection model: intra-macrophage PA (XDR) in RAW 264.7 cells; type: cell-based, Pseudomonas aeruginosa; settings: MOI 10, 3 μg/mL ciprofloxacin equivalent
Excerpt: FIGS. 5A-5C. […] Data shown reflect mean±SD of three replicates.
However, a critical gap exists in our general understanding of how macrophages respond physiologically to the thiol antioxidant inhibition strategy. Here, we will examine how the thiol antioxidant inhibition strategy (i.e., increased ROS levels) contributes to macrophages killing and intracellular persister cell death.

[2] = tested on: extensively drug-resistant (XDR) PA; assay: Growth inhibition (MIC) of extensively drug-resistant PA; type: cell-based, Pseudomonas aeruginosa; settings: for AuNC, concentration of ciprofloxacin within the AuNC
Excerpt: FIGS. 2A-2F. […] PA01 is sensitized (FIGS. 2A-2B). […]. […] Data shown reflect mean±SD of three replicates.
H2O2 contributes causatively to antibiotics lethality (48). H2O2 is generated as a downstream physiological consequence of antibiotics interacting with their traditional targets. […] Thus, the main challenge to reach lethal H2O2 levels in resistant bacteria is to design molecules that inhibit the antioxidant defense mechanisms. […].

[3] = tested on: ciprofloxacin-induced persister cells from PA (XDR); assay: Eradication of ciprofloxacin-induced persister cells from PA (XDR); type: cell-based, Pseudomonas aeruginosa; settings: 3 μg/mL ciprofloxacin equivalent, 24 h in PBS; persisters generated with 600 μg/mL ciprofloxacin
Method: FIGS. 3A-3E. […] Data shown reflect mean±SD of three replicates.
After removing the drugs, the surviving bacteria were enumerated. […] The steady-state level of H2O2 inside the unstressed aerobic bacterial cell has been projected to be about 50 nM (47). […] The H2O2 level was quantified by measuring the area under the curve (AUC) (FIGS. 3B, 3C).

Compound: O=C(O)c1cn(C2CC2)c2cc(N3CCNCC3)c(F)cc2c1=O [ciprofloxacin]
- average TNF levels (TNF-α): 53.75 ± 2 pg/mL
- residual intra-macrophage bacteria (CFU), in words [1]: fails; also recorded: no significant difference
- ciprofloxacin concentration that inhibits growth of PA (XDR) [2]: > 127.6 µg/mL
- eradication of persister cells (in words) [3]: fails; also recorded: survival persisters

Source: patent publication US11998615B2, “Functionalized nanoparticles and their use in treating bacterial infections” (The Board of Trustees of the Leland Stanford Junior …, priority 2021, dated 2024)
